Where a SMILES comes first, the peptide text is derived from it. Bridges are numbered along the chain shown (N, C = ends). [ ]: non-standard residue; d: D form. 2Nal = N[C@@H](Cc1ccc2ccccc2c1)C(=O)O; d2Nal = N[C@H](Cc1ccc2ccccc2c1)C(=O)O

Test [1] deals with endothelin-1-stimulated increases in [3H]IP. The test is described as follows: Endothelin-1-stimulated [3H]IP in C-6 glioblastoma cells. The class given is cell-based, rat. How it is done: (§1) Total phosphoinositides in C-6 cells and in NMB-R transfected cells were determined as described previously, with minor modifications [Benya, R. V. et al. Mol. Pharmacol. 42:1058 (1992); and Wang, L-H. et al. Biochem. Jo 286:641 (1992)]. Cells were grown to confluence in 24-well plates and then loaded with 100 μCi/ml myo-[2-^3 H]inositol in Dulbecco's modified essential medium with 2% fetal bovine serum at 37° C. for 48 hrs. Cells were washed and incubated in phosphoinositide buffer (standard buffer additionally containing 10 mM LiCl, 20 mM HEPES, 2 mM CaCl2, 2% BSA, and 1.2 mM MgSO4) for 15 min and then for 60 min at 37° C. with agonists at various concentrations or with 3 nM NMB (a half-maximal effective concentration) and possible antagonists at different concentrations. Reactions were halted using ice-cold 1% HCl in methanol, and the inositol phosphates (IP) were isolated as described previously [Bologna, M. et al. Cancer 63:1714 (1989); and Endo, T. et al. J. Endocrinolo 131:313 (1991)]. Briefly, after loading of the anion exchange column, free [^3 H]glycerophosphorylinositol was removed by washing with 5 mM disodium tetraborate in 60 mM sodium formate. Total [^3 H]inositol phosphates were then eluted using 100 mM formic acid in 1.0M ammonium formate as described previously [Benya, R. V. et al. Mol. Pharmacol. 42:1058 (1992); and Wang, L-H. et al. Biochem. J. 286:641 (1992 )].
(§2) without SSoctapeptide analog added. C6 glioblastoma cells (50,000
(§3) cells/well) were incubated with myo[2^3 H]inositol for two days,
(§4) washed and then incubated with or without the indicated peptides for 60
(§5) minutes at 37° C. in phosphoinositide buffer containing 10 mM LiCl
(§6) as described in METHODS. [^3 H]IP was measured using Dowex AG1X8 anio

In test [2] the target is T1, GRP receptor (Rattus norvegicus, UniProt P52500). Put plainly: Amylase release from rat pancreatic acini (alone or Bn-stimulated). The conditions noted are these: for Amylase Release, analog Alone (10 μM): analog 10 μM alone, control 4 ± 1; for Amylase Release, analog Plus Bn (0.3 nM): analog 10 μM plus Bn 0.3 nM, Bn without analog 15 ± 1; for IC50: read-out: IC50 Amylase Release, GRP Receptor, Rat Pancreatic Acini. Further details: from tissue; host or cells: dispersed pancreatic acini. The class given is cell-based. In a few lines: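 Rat pancreatic acini incubated 30 min at 37° C without additives or with somatostatin octapeptide analog, Bn, NMB or combinations. Amylase release expressed as percent of total cellular amylase released during incubation; for inhibition, somatostatin analog (10 μM) tested on 0.3 nM Bn-stimulated release.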

For test [3], the target named is T1, GRP receptor. Put plainly: GRP membrane receptor assay, 125I-[Tyr4]Bn, AR 42J cell membranes. Type of test: binding. The arrangement: endogenous in cells; host or cells: rat AR 42J pancreatic acinar tumor cell membranes. The conditions noted are these: read-out: affinity, 125I-[Tyr4]Bn, AR 42J Cell Membranes (GRP receptors); Cheng method; unit inferred.
Test [4] has as its target T2, NMB receptor (Rattus norvegicus, UniProt P24053).
T2 sequence (P24053 1-390): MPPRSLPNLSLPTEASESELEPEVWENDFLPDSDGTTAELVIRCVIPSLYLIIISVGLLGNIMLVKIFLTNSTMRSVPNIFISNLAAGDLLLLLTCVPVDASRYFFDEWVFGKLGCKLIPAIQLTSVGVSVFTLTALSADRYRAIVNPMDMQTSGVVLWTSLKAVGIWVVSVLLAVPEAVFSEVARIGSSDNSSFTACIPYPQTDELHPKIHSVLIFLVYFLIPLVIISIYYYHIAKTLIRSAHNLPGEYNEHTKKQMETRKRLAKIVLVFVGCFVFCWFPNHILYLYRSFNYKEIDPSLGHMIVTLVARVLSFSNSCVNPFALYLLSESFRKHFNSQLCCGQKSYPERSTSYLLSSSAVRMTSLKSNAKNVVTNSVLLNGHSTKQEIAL
The test is described as follows: [3H]IP in C-6 glioblastoma cells (alone or NMB-stimulated). Type of test: cell-based. The arrangement: a full length NMB-preferring bombesin receptor clone generated from rat esophagus; expressed in transfected cells. How it is done: as §1, §2, §3, §4, §5, §6

Test [5] concerns the target T2, NMB receptor. The test is described as follows: NMB membrane receptor assay, 125I-NMB, rat olfactory bulb membranes. Type of test: binding. Further details: Membranes were prepared from rat olfactory bulb (NMB membrane receptor assay); from tissue; host or cells: rat olfactory bulb membranes. The conditions noted are these: Cheng method; unit inferred; read-out: affinity, 125I-NMB, Rat Olfactory bulb membranes (neuromedin B receptors).

Test [6] deals with GRP receptors on rat pancreatic acini. The test is described as follows: Binding of 125I-[Tyr4]bombesin to pancreatic acini. The conditions noted are these: NMB-R transfected cells vs GRP-R on rat pancreatic acini.
Description: Nonsaturable binding was<10% of total binding in all experiments.

T1 sequence (P52500 whole entry): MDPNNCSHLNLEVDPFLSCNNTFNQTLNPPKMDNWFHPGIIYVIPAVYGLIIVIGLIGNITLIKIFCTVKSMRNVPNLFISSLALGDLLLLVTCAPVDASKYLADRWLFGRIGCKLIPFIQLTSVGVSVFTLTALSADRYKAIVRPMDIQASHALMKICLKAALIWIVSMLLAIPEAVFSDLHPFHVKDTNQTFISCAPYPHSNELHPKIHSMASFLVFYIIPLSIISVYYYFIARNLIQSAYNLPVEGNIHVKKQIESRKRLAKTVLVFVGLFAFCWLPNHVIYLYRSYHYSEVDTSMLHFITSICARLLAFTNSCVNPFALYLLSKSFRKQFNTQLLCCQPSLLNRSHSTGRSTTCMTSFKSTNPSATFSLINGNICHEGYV

For `C[C@@H](O)[C@H](NC(=O)[C@@H]1CSSC[C@H](NC(=O)[C@H](N)Cc2ccc3ccccc3c2)C(=O)N[C@@H](Cc2ccc(O)cc2)C(=O)N[C@H](Cc2c[nH]c3ccccc23)C(=O)N[C@@H](CCCCN)C(=O)N[C@@H](Cc2ccc3ccccc3c2)C(=O)N1)C(N)=O` [Analog #2, H2 -D-Nal-Cys-Tyr-D-Trp-Lys-Nal-Cys-Thr-NH2], the “effect on endothelin-1-stimulated increases in [3H]IP in C-6 cells” value in test [1] is given as “no effect”. Also, the “[3H]IP with ET-1 (0.1 nM)” value in test [1] (analog 10 μM, ET-1 alone 11.0 ± 2.1) came to 11.2 ± 1.9 dpm × 10^3. Moreover, at GRP receptor [2], the “Amylase Release, analog Alone (10 μM)” value was 5 ± 1 % total; the “Amylase Release, analog Plus Bn (0.3 nM)” value is 13 ± 1 % total; the IC50 is greater than 10000 nM. For the same compound, on GRP receptor [3], the Ki was 950 ± 70 nM. The “effect on NMB-stimulated increases in [3H]IP in C-6 cells” value on NMB receptor [4] was “inhibited”. Further, the “[3H]IP, no peptide added” value on NMB receptor [4] (analog 10 μM, 60 min 37° C., control 7.2 ± 1.0) is 7.3 ± 1.2 dpm × 10^3. Moreover, the “[3H]IP with NMB (10 nM)” value on NMB receptor [4] (analog 10 μM, NMB alone 21.0 ± 1.8) is recorded as 14.3 ± 4.2 dpm × 10^3. In addition, the Ki at NMB receptor [5] was determined as 85 ± 20 nM.

Consider `NCCCC[C@@H]1NC(=O)[C@@H](Cc2c[nH]c3ccccc23)NC(=O)[C@H](Cc2ccc(O)cc2)NC(=O)[C@@H](NC(=O)[C@H](N)Cc2ccc3ccccc3c2)CSSC[C@@H](C(=O)N[C@@H](Cc2ccc3ccccc3c2)C(N)=O)NC(=O)[C@H](Cc2ccccc2)NC1=O` [Analog #13, H2 -D-Nal-Cys-Tyr-D-Trp-Lys-Phe-Cys-Nal-NH2] (H-[d2Nal]CY[dW]KFC[2Nal]-NH2; disulfide 2-7), for which the “fold greater affinity for NMB than GRP receptors” value in test [6] is given as greater than 100 fold. Moreover, on GRP receptor [2], the “Amylase Release, analog Alone (10 μM)” value came out at 3 ± 1 % total; the “Amylase Release, analog Plus Bn (0.3 nM)” value is reported as 14 ± 1 % total; the IC50 is greater than 10000 nM. Besides, the Ki at GRP receptor [3] is 2150 ± 200 nM. Besides, the Ki on NMB receptor [5] turned out to be 270 ± 90 nM.

On to `CC(C)[C@@H]1NC(=O)[C@H](CCCCN)NC(=O)[C@@H](Cc2ccc3ccccc3c2)NC(=O)[C@H](Cc2ccc(O)cc2)NC(=O)[C@@H](NC(=O)[C@H](N)Cc2ccc3ccccc3c2)CSSC[C@@H](C(=O)N[C@@H](Cc2ccc3ccccc3c2)C(N)=O)NC1=O` [Analog #17, H2 -D-Nal-Cys-Tyr-D-Nal-Lys-Val-Cys-Nal-NH2] (H-[d2Nal]CY[d2Nal]KVC[2Nal]-NH2; disulfide 2-7), for which the “fold greater affinity for NMB than GRP receptors” value in test [6] is on record as greater than 100 fold. In addition, at GRP receptor [2], the “Amylase Release, analog Alone (10 μM)” value came out at 4 ± 2 % total; the “Amylase Release, analog Plus Bn (0.3 nM)” value was 19 ± 1 % total; the IC50 is greater than 10000 nM. In addition, the Ki on GRP receptor [3] is 3710 ± 200 nM. Further, at NMB receptor [5], the Ki came to 850 ± 300 nM.

What is called IC50 is the concentration that inhibits the measured activity by half.

The values above are taken from US5462926A (Biomeasure, Inc., priority 1993, dated 1995).
